The record followed here is patent US20230270113A1, “FUNGICIDAL MIXTURES” (Adama Makhteshim Ltd., priority 2020, published 2023).

The test system of assay [1] is Zymoseptoria tritici Tri-R6 strain. Format: in vivo. The settings on record: for residual efficacy of the contact active ingredients after the washing step: 21 and 28 days after inoculation; for efficacy in the untreated area: contact fungicide as partner of FLUXAPYROXAD
Assay [2] concerns Zymoseptoria tritici. As to the kind of experiment: Example 28: in planta bioassay of penetration and translocation of QoI with folpet, wheat leaf segments. Format: in vivo. The settings on record: example written in the present tense.
The subject of assay [3] is Venturia inaequalis. As to the kind of experiment: Example 2: greenhouse control of apple scab, phthalimides with cyprodinil and/or fluxapyroxad. Format: in vivo. The settings on record: Table 6; captan or folpet 1200, cyprodinil 300, fluxapyroxad 90 gAI/ha; one spray 1 day before inoculation.
Assay [4] concerns Alternaria solani. As to the kind of experiment: Example 4: greenhouse control of Alternaria solani in tomato seedlings, phthalimides with DMI and/or fluxapyroxad. Format: in vivo. The settings on record: Table 9.
Assay [5] relates to Alternaria solani. As to the kind of experiment: Example 5: greenhouse control of Alternaria solani in tomato, phthalimides with azoxystrobin and/or fluxapyroxad. The format is in vivo.
The subject of assay [6] is Plasmopara viticola. As to the kind of experiment: Example 7: greenhouse control of Plasmopara viticola in grape plants, folpet with partners. Format: in vivo.
For assay [7], the system named is Erysiphe necator. As to the kind of experiment: Example 9: greenhouse control of Erysiphe necator in grape plants. The format is in vivo. The procedure: • An experiment was conducted in controlled conditions under a greenhouse to evaluate the fungicidal activity of the mixture comprising (1) phthalimide fungicide (folpet, captan) and (2) demethylation inhibitor fungicide (difenoconazole) or a quinone outside inhibitors (azoxystrobin, pyraclostrobin), toward Erysiphe necator in grape plants, variety Barbera. In addition, the activity of phthalimide with two fungicides (A); demethylation inhibitor fungicide (difenoconazole) or a quinone outside inhibitors (azoxystrobin, pyraclostrobin and dehydrogenase inhibitor fungicide (fluxapyroxad) was also tested. • The experiment was conducted by applying compositions of fluxapyroxad, difenoconazole (Score® 10 WG), azoxystrobin (Ortiva®), pyraclostrobin (Cabrio® EC) and folpet (Folpan 80 WDG®) alone or together. The compositions were diluted with water. Water amount used was equivalent to 800 L/ha. Application was performed in an automatic spraying cabin equipped with 2 flatfan AI11003VS nozzles. • Treatments: • Folpet 1000 gr (A.I.)/ha • Fluxapyroxad 45 gr (A.I.)/ha • Difenoconazole 37.5 gr (A.I.)/ha • Difenoconazole 37.5 gr (A.I.)/ha+folpet 1000 gr (A.I.)/ha • Azoxystrobin 90 gr (A.I.)/ha • Azoxystrobin 90 gr (A.I.)/ha+folpet 1000 gr (A.I.)/ha • Pyraclostrobin 75 gr (A.I.)/ha • Pyraclostrobin 75 gr (A.I.)/ha+folpet 1000 gr (A.I.)/ha • Fluxapyroxad 45 gr (A.I.)/ha+Difenoconazole 37.5 gr (A.I.)/ha • Fluxapyroxad 45 gr (A.I.)/ha+Difenoconazole 37.5 gr (A.I.)/ha+folpet 1000 gr (A.I.)/ha • Azoxystrobin 90 gr (A.I.)/ha+Fluxapyroxad 45 gr (A.I.)/ha • Azoxystrobin 90 gr (A.I.)/ha+Fluxapyroxad 45 gr (A.I.)/ha+folpet 1000 gr (A.I.)/ha • Azoxystrobin 90 gr (A.I.)/ha+Difenoconazole 37.5 gr (A.I.)/ha • Azoxystrobin 90 gr (A.I.)/ha+Difenoconazole 37.5 gr (A.I.)/ha+folpet 1000 gr (A.I.)/ha • Pyraclostrobin 75 gr (A.I.)/ha+Fluxapyroxad 45 gr (A.I.)/ha • Pyraclostrobin 75 gr (A.I.)/ha+Fluxapyroxad 45 gr (A.I.)/ha+folpet 1000 gr (A.I.)/ha • Pyraclostrobin 75 gr (A.I.)/ha+Difenoconazole 37.5 gr (A.I.)/ha • Pyraclostrobin 75 gr (A.I.)/ha+Difenoconazole 37.5 gr (A.I.)/ha+folpet 1000 gr (A.I.)/ha • To test for fungicidal control of Erysiphe necator, the grape plants were sprayed with each of the above treatments. Each of the above treatments was applied from 4 to 10 times according to the disease development, applications occurring 7-14 days after the previous treatment. The treatments were composed of 4 replicates. • Evaluations were performed for the whole duration of the experiment. At each time the incidence and the severity of Erysiphe necator on plants parts was determined.

Assay [8] relates to Sphaerotheca fuliginea. As to the kind of experiment: Example 10: greenhouse control of Sphaerotheca fuliginea on melon plants. Format: in vivo.
In assay [9] the test system is Venturia inaequalis. As to the kind of experiment: Example 13: greenhouse control of apple scab, fluxapyroxad and captan. Format: in vivo.
The subject of assay [10] is Plasmopara viticola. As to the kind of experiment: Example 22: greenhouse control of Plasmopara viticola in grape, fluxapyroxad and folpet. To be noted: variety Barbera. Format: in vivo.
The test system of assay [11] is Venturia inaequalis. As to the kind of experiment: Example A: greenhouse control of apple scab, phthalimides with DMI and/or fluopyram. Format: in vivo. The settings on record: for % control observed on leaves 26 DAYS after the application / % control observed on leaves 19 DAYS after the application: captan or folpet 1200, difenoconazole 75, tebuconazole 150, fluopyram 150 gAI/ha; for Var % (19/26 DAYS): change of % control from 19 to 26 days.

Assay [12] relates to Venturia inaequalis. As to the kind of experiment: Example 1b: greenhouse control of apple scab, reduced rates of phthalimides and difenoconazole. Format: in vivo. The settings on record: for % control observed on leaves 26 DAYS after the application / % control observed on leaves 19 DAYS after the application: captan or folpet 900, difenoconazole 35, tebuconazole 150, fluopyram 150 gAI/ha.

The subject of assay [13] is Phytophthora infestans. Format: in vivo. To be noted: tomato.
In assay [14] the test system is Alternaria solani. As to the kind of experiment: Example 6b: greenhouse control of Alternaria solani in potato plants. Format: in vivo.
The subject of assay [15] is Botrytis cinerea. As to the kind of experiment: Example 11: greenhouse control of Botrytis cinerea in strawberry. The format is in vivo.
The test system of assay [16] is Plasmopara viticola. As to the kind of experiment: Example 8: greenhouse control of Plasmopara viticola in young grape plants, folpet with potassium phosphonate.
[17] abbreviates: 28 days, comparison with FLUXAPYROXAD alone.
Setting [18] is: captan or folpet 1200, difenoconazole 75, tebuconazole 150, fluxapyroxad 75 gAI/ha, one spray 1 day before inoculation.
The mark [19] stands for this setting: Table 10, captan or folpet 1200, azoxystrobin 120, fluxapyroxad 75 gAI/ha, one spray 1 day before inoculation.
[20] abbreviates: Table 2, one spray 1 day before inoculation, severity based.
The mark [21] stands for this setting: Table 4, one spray 1 day before inoculation.
[22] abbreviates: Table 10, captan or folpet 900 gAI/ha.

Read-outs that look alike come from different tables or passages of the source.

Turning to `S1SSSSSSS1` [SULPHUR], in assay [1], the “residual efficacy of the contact active ingredients after the washing step” value (from here on “residual efficacy”) was “very low”. Also, in [1] (setting [17]), the “efficacy in the untreated area” value is reported as “significantly less than when FLUXAPYROXAD is used alone or with FOLPET”. Further, the “difference from the untreated control after the washing step, treated and untreated areas” value (“difference from the untreated control” below) in assay [2] is reported as “no significant difference from the untreated control”.

For `Cn1cc(C(=O)Nc2ccccc2-c2cc(F)c(F)c(F)c2)c(C(F)F)n1` [FLUXAPIROXAD, fluxapyroxad], the “% control observed on leaves 26 DAYS after the application” value (“% control observed on leaves 26 DAYS” for short) in assay [3] is listed as 75%; in assay [9] (rate 45 gAI/ha), 38.6%; in assay [9] (rate 55 gAI/ha) it was 61.7%; in [9] (rate 75 gAI/ha) it was 78.4%; in assay [9] (rate 90 gAI/ha) it was 86.6%. Further, the “% control observed on leaves 20 DAYS after the application” value (from here on “% control observed on leaves 20 DAYS”) in assay [4] (setting [18]) is 60.4%; in assay [5] (setting [19]), 66.6%; in assay [5] (rate 75 gAI/ha, tomato), 66.6%. In addition, in assay [5] (rate 75 gAI/ha, tomato), the “% control observed on leaves 14 DAYS after the application” value (“% control observed on leaves 14 DAYS” for short) is reported as 75.3%. In assay [5] (rate 75 gAI/ha, tomato), the “Var % (14/20 DAYS)” value is given as −11.6%. In addition, the results for the “% control observed on leaves 21 DAYS after the application” value (“% control observed on leaves 21 DAYS” for short) in assay [6] (rate 45 gr (A.I.)/ha), in assay [7] (rate 45 gr (A.I.)/ha) and in [8] (rate 75 gr (A.I.)/ha) were 35.1%, 68.7% and 72.5%, respectively. The “effect against Plasmopara viticola” value in assay [10] is given as “limited effect”. For the same compound, the “efficacy in the treated area” value in assay [1] (setting [17]) is “better protection than when used with SULPHUR or CHLOROTHALONIL”.

Consider `O=C1C2CC=CCC2C(=O)N1SC(Cl)(Cl)Cl` (stereo not shown) [CAPTAN, captan], for which the “% control observed on leaves 26 DAYS” value was found to be 75.9% in assay [11] (setting [20]); 75.9% in assay [11] (Table 3); 77% in assay [12] (setting [21]); 77% in assay [12] (Table 5); 68.3% in assay [3]; 50.4% in [9] (rate 600 gAI/ha). Also, the “% control observed on leaves 26 DAYS” value in assay [9] (rate 900 gAI/ha) was 68.1%; in assay [9] (rate 1200 gAI/ha), 78.5%; in [9] (rate 1500 gAI/ha), 89.1%. The “% control observed on leaves 19 DAYS after the application” value in [11] (Table 3) amounted to 82.6%; in [12] (Table 5), 83.9%. Moreover, the “Var % (19/26 DAYS)” value in assay [11] (Table 3) is reported as −8.1%; in assay [12] (Table 5, change of % control from 19 to 26 days), −8.2%. For the same compound, the “% control observed on leaves 20 DAYS” value amounted to 51.3% in assay [4] (captan or folpet 900 gAI/ha); 64.3% in assay [4] (setting [18]); 54.5% in assay [5] (setting [22]); 65.9% in assay [5] (setting [19]); 54.5% in assay [5] (rate 900 gAI/ha, tomato); 65.9% in assay [5] (rate 1200 gAI/ha, tomato). In addition, the “% control observed on leaves 14 DAYS” value in [5] (rate 900 gAI/ha, tomato) is 64.9%; in assay [5] (rate 1200 gAI/ha, tomato), 76%; in assay [13] (rate 900 gr (A.I.)/ha) it was 57.0%; in assay [13] (rate 1200 gr (A.I.)/ha) it was 72.4%. For the same compound, the “Var % (14/20 DAYS)” value is on record as −16.0% in assay [5] (rate 900 gAI/ha, tomato) and −13.3% in assay [5] (rate 1200 gAI/ha, tomato). Moreover, the “% control observed on leaves 21 DAYS” value came out at 54.1% in assay [14] (rate 900 gr (A.I.)/ha) and 64.8% in assay [14] (rate 1200 gr (A.I.)/ha).

As for `O=C1c2ccccc2C(=O)N1SC(Cl)(Cl)Cl` [FOLPET, folpet], the “% control observed on leaves 26 DAYS” value in assay [11] (setting [20]) turned out to be 72.3%; in assay [11] (Table 3) it was 72.3%; in assay [12] (setting [21]) it was 73.4%; in assay [12] (Table 5) it was 73.4%; in [3], 64.9%. Besides, the “% control observed on leaves 19 DAYS after the application” value was determined as 80.6% in [11] (Table 3) and 82.1% in [12] (Table 5). In addition, the “Var % (19/26 DAYS)” value in assay [11] (Table 3) is recorded as −10.3%. For the same compound, the “% control observed on leaves 20 DAYS” value in [4] (captan or folpet 900 gAI/ha) was 50.5%; in [4] (setting [18]) it was 63.4%; in [5] (setting [22]), 56.7%; in assay [5] (setting [19]), 65.3%; in assay [5] (rate 900 gAI/ha, tomato), 56.7%; in assay [5] (rate 1200 gAI/ha, tomato) it was 65.3%. Moreover, the “% control observed on leaves 14 DAYS” value in assay [5] (rate 900 gAI/ha, tomato) is 67.8%; in [5] (rate 1200 gAI/ha, tomato), 79.7%; in assay [13] (rate 900 gr (A.I.)/ha), 58.3%; in [13] (rate 1200 gr (A.I.)/ha), 70.3%. Also, the “Var % (14/20 DAYS)” value in [5] (rate 900 gAI/ha, tomato) is reported as −16.4%; in assay [5] (rate 1200 gAI/ha, tomato), 18.1%. Besides, the “% control observed on leaves 21 DAYS” value worked out at 53.2% in assay [14] (rate 900 gr (A.I.)/ha); 63.6% in assay [14] (rate 1200 gr (A.I.)/ha); 60.3% in assay [6] (rate 1000 gr (A.I.)/ha); 35.2% in [7] (rate 1000 gr (A.I.)/ha); 45.3% in assay [8] (rate 900 gr (A.I.)/ha); 54.0% in assay [8] (rate 1200 gr (A.I.)/ha). For the same compound, the “% control observed on leaves 21 DAYS” value was 33.3% in assay [15] (rate 900 gr (A.I.)/ha) and 40.8% in [15] (rate 1200 gr (A.I.)/ha). For the same compound, in [1], the “residual efficacy” value was “very low”. For the same compound, the “difference from the untreated control” value in assay [2] is on record as “no significant difference from the untreated control”. Moreover, the “% control observed on leaves 28 DAYS after the application” value in assay [16] (rate 1050 gAI/ha) amounted to 87.7%; in assay [16] (rate 1200 gAI/ha) it was 96.9%.

For `N#Cc1c(Cl)c(Cl)c(Cl)c(C#N)c1Cl` [CHLOROTHALONIL, chlorothalonil], the “residual efficacy” value in [1] is “very low”. Also, the “efficacy in the untreated area” value in assay [1] (setting [17]) is “significantly less than when FLUXAPYROXAD is used alone or with FOLPET”. The “difference from the untreated control” value in [2] is recorded as “no significant difference from the untreated control”.

In the case of potassium phosphonate, the “% control observed on leaves 28 DAYS after the application” value turned out to be 31.7% in assay [16] (rate 1575 gAI/ha) and 40.9% in assay [16] (rate 1800 gAI/ha).
